Experiments:
Format in all cases: in vivo, rat
rats = assay: Abortive test on rats s.c. and p.o.
Excerpt: (§1) The tests below were all performed on rats according to known methods.
Abortive test s.c. and p.o.: See, for example, EP-A 0 283 428.

prostate weight = assay: Androgen test on rats p.o. (stimulation of the prostate weight)
Experimental: as §1
Androgen test p.o.: Stimulation of the prostate weight with the test compound, vehicle: s.c. benzylbenzoate, castor oil (1+4); p.o. NaCl-myrj; reference compound testosterone propionate. Virtually no stimulation of the prostate weight is observed up to a dose of 10 mg of test compound/animal/day.

[1] = test system: dexamethasone-induced thymus suppression; assay: Antithymolysis test on rats p.o. on antiglucocorticoid action
Excerpt: The tests below were all performed on rats according to known methods. Antithymolysis test p.o. on antiglucocorticoid action: See, for example, EP-A 0 283 428.

uterus weight = assay: Uterus growth test on rats p.o. for estrogenic action; conditions: ovariectomized rats, 3-day treatment
Experimental: The tests below were all performed on rats according to known methods. Uterus growth test p.o. for estrogenic action: Stimulation of uterus weight with the test compound, vehicle: s.c. benzylbenzoate/castor oil (1+4); p.o. NaCl-myrj; 3-day treatment of ovariectomized animals; parameters: uterus weight and endometrial epithelium height; vaginal smear negative; reference compound: estradiol 0.1 μg.

Row | Molecule | Abortive test on rats p.o. (n abortion/n total) (rats; dose 0.03 mg/animal/day) | Abortive test on rats p.o. (n abortion/n total) (rats; dose 0.1 mg/animal/day) | Abortive test on rats p.o. (n abortion/n total) (rats; dose 0.3 mg/animal/day) | Abortive test on rats s.c. (n abortion/n total) (rats; dose 0.03 mg/animal/day) | Abortive test on rats s.c. (n abortion/n total) (rats; dose 0.1 mg/animal/day) | Abortive test on rats s.c. (n abortion/n total) (rats; dose 0.3 mg/animal/day) | Androgen test on rats p.o. (% prostate stimulation) (prostate weight; dose 1 mg/animal/day) | Androgen test on rats p.o. (% prostate stimulation) (prostate weight; dose 3 mg/animal/day) | Antithymolysis test on rats p.o. (% elimination of dexamethasone-induced thymus suppression) ([1]; dose 1 mg/animal/day) | Antithymolysis test on rats p.o. (% elimination of dexamethasone-induced thymus suppression) ([1]; dose 3 mg/animal/day) | Antithymolysis test on rats p.o. (% elimination of dexamethasone-induced thymus suppression) ([1]; dose 10 mg/animal/day) | Uterus growth test on rats p.o. (% uterus weight stimulation) (uterus weight; dose 10 mg/animal/day) | Androgen test on rats p.o. (% prostate stimulation) (prostate weight; dose 10 mg/animal/day) | Uterus growth test on rats p.o. (% uterus weight stimulation) (uterus weight; dose 3 mg/animal/day) | Abortive test on rats p.o. (n abortion/n total) (rats; dose 0.003 mg/animal/day) | Abortive test on rats p.o. (n abortion/n total) (rats; dose 0.01 mg/animal/day) | Antithymolysis test on rats p.o. (% elimination of dexamethasone-induced thymus suppression) ([1]; dose 2.2 mg/animal/day) | Antithymolysis test on rats p.o. (% elimination of dexamethasone-induced thymus suppression) ([1]; dose 6.7 mg/animal/day) | Antithymolysis test on rats p.o. (% elimination of dexamethasone-induced thymus suppression) ([1]; dose 22 mg/animal/day)
1 | CC(=O)c1ccc(C2CC3(C)C(CCC3(O)C(F)(F)C(F)(F)F)C3CCC4=CC(=O)CCC4C23)cc1 (stereo not drawn) [Compound A, 11β-(4-Acetylphenyl)-17β-hydroxy-17α-(1,1,2,2,2-pentafluoroethyl)estr-4-en-3-one] | (4/4) | (4/4) | (4/4) | (4/4) | (4/4) | (4/4) | (4.8) % | (3.3) % | (6.0) % | (7.4) % | (11.5) % | (3.7) % | – | – | – | – | – | – | –
2 | CC#C[C@]1(O)CC[C@H]2[C@@H]3CCC4=CC(=O)CCC4=C3[C@@H](c3ccc(N(C)C)cc3)C[C@@]21C [D, 11β-[4-(Dimethylamino)phenyl]-17β-hydroxy-17α-(1-propinyl)estra-4,9-dien-3-one, reference compound] | – | – | – | – | – | – | (1.6) % | (2.9) % | (19) % | (79) % | (76) % | (6.4) % | (7.2) % | – | – | – | – | – | –
3 | CC(=O)c1ccc([C@H]2C[C@@]3(C)[C@@H](CC[C@@]3(O)C(F)(F)C(F)(F)F)[C@@H]3CCC4=CC(=O)CCC4=C32)cc1 [B, 11β-(4-Acetylphenyl)-17β-hydroxy-17α-(1,1,2,2,2-pentafluoroethyl)estra-4,9-dien-3-one] | (4/4) | (4/4) | (4/4) | (4/4) | (4/4) | (4/4) | (2.1) % | (0) % | (1.2) % | (21.6) % | (18.2) % | (2.6) % | – | – | – | – | – | – | –
4 | C=C1CCOC12CCC1C3CCC4=CC(=O)CCC4=C3C(c3ccc(C(C)=O)cc3)CC12C (stereo not drawn) [E, 11β-(4-Acetylphenyl)-19,24-dinor-17,23-epoxy-17α-chola-4,9,20-trien-3-one, reference compound] | (0/4) | (4/4) | (4/4) | (0/4) | (3/4) | (4/4) | (4.0) % | (5.6) % | (4.3) % | (19.1) % | (44.7) % | (2.4) % | (4.4) % | (1.3) % | – | – | – | – | –
5 | 6′-Acetyl-9,11α-dihydro-17β-hydroxy-17α-(1,1,2,2,2-pentafluoroethyl)-4′H-naphth[3′,2′,1′:10,9,11]estr-4-en-3-one [Compound C] | (4/4) | (4/4) | (4/4) | (4/4) | (4/4) | (4/4) | – | – | – | – | – | (4.4) % | – | – | (4/4) | (4/4) | (7.2) % | (31.6) % | (18.8) %

Source: patent US20050080060A1, “Antigestagenically active steroids with a fluorinated 17alpha-alkyl chain” (priority 1997, published 2005)
